# Results as given in patent publication US9896440B2, “Aryl substituted heterocyclyl sulfones” (GRÜNENTHAL GMBH, priority 2014, dated 2018).
# Target: T1, Human CaV2.2 channels (Homo sapiens, UniProt Q00975)
# T1 construct: expressed in transfected cells; Kir2.3 also stably co-expressed
# Assay: Fluorescence assay for CaV2.2 channels using potassium depolarization to induce channel opening (FLIPR, Fluo 4)
# Format: cell-based
# Settings: 3 μM test compound, 30 mM KCl assay buffer (inactivated channel state), HEK293 cells
# Excerpt: In the process, the Ca^2+ influx is quantified in the FLIPR assay with the aid of a Ca^2+-sensitive dye (type Fluo-4, Molecular Probes Europe BV, Leiden, the Netherlands) in a fluorescent imaging plate reader (FLIPR 3, Molecular Devices, Sunnyvale, USA), as described hereinafter.
# Human CaV2.2 channels were stably expressed in HEK293 cells together with alpha2-delta and beta subunits of voltage gated calcium channels. In addition, an inwardly rectifying potassium channel (Kir2.3) was stably expressed in these cells to augment control of the cell membrane potential by the concentration of extracellular potassium ions. Raise of the extracellular potassium concentration leads to depolarization of the membrane potential and thus regulates the voltage dependent state of CaV2.2 channels. For preparation, cells were seeded in black poly-D-lysine coated 96-well plates (Becton Dickinson, Biocoat 4640) in 100 μL medium [500 mL DMEM/F-12 plus Glutamax (Invitrogen 31331-093) plus 5.5 mL MEM NEAA 100× (Invitrogen 11140-035) plus 50 mL FBS decomplemented (Invitrogen 10270-106) plus 200 μg/mL Geneticin (Invitrogen 10131-027) plus 50 μg/mL Hygromycin B (Invitrogen 10687-010) plus 2 μg/mL Blasticidin (anti-bl5b Invivo-Gen) plus 0.2 μg/mL Puromycin (A 11138-03)] at a cell density of 30.000 cells per well. Plates were incubated at 37° C. (5% CO2) for 20 to 23 h. On the day of experiment medium was discarded and cells were loaded with Fluo 4 by addition of 100 μL of basic assay buffer (10 mM HEPES, 1 mM KCl, 149 mM NaCl, 0.8 mM CaCl2, 1.7 mM MgCl2, 10 mM Glucose, 0.1% BSA. pH 7.4) containing 2 μM Fluo 4 (Molecular Probes; F-14201), 0.01% pluronic acid (Molecular Probes; P-6866) and 2.5 mM probenecid (Molecular Probes; P36400). Cells were incubated in the dark at 25° C. for 60 min. Then dye containing buffer was discarded and 100 μL basic (1 mM KCl) or alternative (30 mM KCl) assay buffer was added. The alternative assay buffer contained altered concentrations of KCl (30 mM) and NaCl (120 mM) and was used in order to promote the inactivated channel state. After that 25 μL of basic or alternative assay buffer with or without test compound were added and cells were incubated again in the dark at 25° C. for 15 min. Fluorescence intensity was measured on a FLIPR 3 instrument (Molecular Devices Corp., Sunnyvale, Calif.) with excitation at 480 nm and emission at 535 nm. After continuously reading fluorescence for 30 sec, 50 μL of basic assay buffer containing 210 mM KCl (NaCl omitted) were added for depolarization. Peak fluorescent signal intensity was determined and the amplitude of the peak signal, normalized to base line, was used to measure channel inhibition by test compounds.
# T1 sequence (Q00975 whole entry): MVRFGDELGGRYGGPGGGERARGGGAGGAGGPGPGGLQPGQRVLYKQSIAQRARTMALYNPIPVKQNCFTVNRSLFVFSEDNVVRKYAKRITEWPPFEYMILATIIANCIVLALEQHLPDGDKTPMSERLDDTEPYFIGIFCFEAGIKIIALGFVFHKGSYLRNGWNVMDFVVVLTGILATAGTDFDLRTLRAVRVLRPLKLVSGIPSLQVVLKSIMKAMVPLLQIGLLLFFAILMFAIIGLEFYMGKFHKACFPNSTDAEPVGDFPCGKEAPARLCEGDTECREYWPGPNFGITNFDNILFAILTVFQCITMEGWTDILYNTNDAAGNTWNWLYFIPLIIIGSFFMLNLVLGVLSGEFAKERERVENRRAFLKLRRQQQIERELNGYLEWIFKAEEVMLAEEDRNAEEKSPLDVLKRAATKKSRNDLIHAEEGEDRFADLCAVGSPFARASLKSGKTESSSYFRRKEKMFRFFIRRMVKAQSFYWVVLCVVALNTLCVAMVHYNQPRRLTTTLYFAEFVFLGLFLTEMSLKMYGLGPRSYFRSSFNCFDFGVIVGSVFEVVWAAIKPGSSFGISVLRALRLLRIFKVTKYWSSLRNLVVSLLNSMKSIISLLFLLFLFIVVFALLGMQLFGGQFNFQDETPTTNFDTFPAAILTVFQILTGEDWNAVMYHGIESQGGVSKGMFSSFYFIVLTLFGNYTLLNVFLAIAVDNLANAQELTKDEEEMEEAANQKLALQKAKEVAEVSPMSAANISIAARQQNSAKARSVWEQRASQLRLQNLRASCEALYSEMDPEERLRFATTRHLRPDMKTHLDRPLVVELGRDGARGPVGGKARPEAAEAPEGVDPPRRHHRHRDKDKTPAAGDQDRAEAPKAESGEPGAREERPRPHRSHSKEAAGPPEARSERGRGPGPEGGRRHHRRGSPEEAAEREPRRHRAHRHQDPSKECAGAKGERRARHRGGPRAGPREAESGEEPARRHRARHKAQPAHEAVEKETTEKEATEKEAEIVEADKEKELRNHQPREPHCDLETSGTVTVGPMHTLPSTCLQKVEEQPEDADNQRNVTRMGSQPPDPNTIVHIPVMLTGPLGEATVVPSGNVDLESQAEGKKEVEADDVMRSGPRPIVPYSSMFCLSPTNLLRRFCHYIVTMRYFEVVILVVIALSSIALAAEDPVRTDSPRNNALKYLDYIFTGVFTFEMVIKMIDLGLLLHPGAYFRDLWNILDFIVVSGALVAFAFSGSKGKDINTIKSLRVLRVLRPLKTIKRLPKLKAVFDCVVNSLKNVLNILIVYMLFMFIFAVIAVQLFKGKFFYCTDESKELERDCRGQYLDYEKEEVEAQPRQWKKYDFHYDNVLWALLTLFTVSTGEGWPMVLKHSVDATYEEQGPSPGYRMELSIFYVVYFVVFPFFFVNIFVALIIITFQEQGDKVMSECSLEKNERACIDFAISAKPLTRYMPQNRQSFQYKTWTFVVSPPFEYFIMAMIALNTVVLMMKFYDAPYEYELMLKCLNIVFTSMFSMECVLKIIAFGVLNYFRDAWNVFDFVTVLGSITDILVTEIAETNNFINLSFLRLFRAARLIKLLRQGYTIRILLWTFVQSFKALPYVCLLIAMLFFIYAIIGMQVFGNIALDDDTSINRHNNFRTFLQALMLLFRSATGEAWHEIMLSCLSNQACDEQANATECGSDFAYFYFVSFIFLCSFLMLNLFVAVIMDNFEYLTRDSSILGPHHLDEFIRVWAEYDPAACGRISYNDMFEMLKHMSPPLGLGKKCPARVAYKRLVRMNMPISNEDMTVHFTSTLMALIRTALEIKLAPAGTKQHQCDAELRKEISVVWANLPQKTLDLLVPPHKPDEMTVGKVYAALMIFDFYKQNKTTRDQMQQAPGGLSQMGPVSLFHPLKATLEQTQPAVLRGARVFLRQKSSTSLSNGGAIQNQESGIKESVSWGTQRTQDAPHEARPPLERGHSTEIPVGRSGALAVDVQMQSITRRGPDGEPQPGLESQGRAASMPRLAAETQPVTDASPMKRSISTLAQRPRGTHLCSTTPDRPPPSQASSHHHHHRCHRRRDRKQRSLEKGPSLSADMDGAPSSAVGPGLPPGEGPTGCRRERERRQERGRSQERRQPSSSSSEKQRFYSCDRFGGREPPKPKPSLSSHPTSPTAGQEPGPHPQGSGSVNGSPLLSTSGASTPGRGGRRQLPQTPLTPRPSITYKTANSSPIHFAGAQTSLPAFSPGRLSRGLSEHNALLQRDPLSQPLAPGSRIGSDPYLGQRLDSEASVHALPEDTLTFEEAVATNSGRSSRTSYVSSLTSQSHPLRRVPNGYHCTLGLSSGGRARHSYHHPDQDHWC
row,Structure (SMILES),Activity Category: %-Inhib (CaV2.2) @3 μM @30 mM KCl
1,"CC1(S(=O)(=O)c2cccc(C(F)(F)F)c2)CCOC(c2ccc(S(C)(=O)=O)c(S(C)(=O)=O)c2)C1 (single isomer, unassigned) [SC-133, 2-[3,4-Bis(methylsulfonyl)-phenyl]-4-methyl-4-[[3-(trifluoromethyl)phenyl]sulfonyl]-tetrahydro-pyran]",A (%-Inhibition >95%)
2,"CC1(S(=O)(=O)c2cccc(C(F)(F)F)c2)CCOC(c2ccc(-n3cncn3)cc2)C1 (single isomer, unassigned) [SC-135, 1-[4-[4-Methyl-4-[[3-(trifluoromethyl)phenyl]sulfonyl]-tetrahydro-pyran-2-yl]-phenyl]-1H-[1,2,4]triazole]",A (%-Inhibition >95%)
3,"CC1(S(=O)(=O)c2cccc(C(F)(F)F)c2)CCOC(c2ccc(F)c(C(N)=O)c2)C1 (single isomer, unassigned) [SC-138, 2-Fluoro-5-[4-methyl-4-[[3-(trifluoromethyl)phenyl]sulfonyl]-tetrahydro-pyran-2-yl]-benzamide]",C (%-Inhibition >40% up to ≦75%)
4,"CC1(S(=O)(=O)c2cccc(C(F)(F)F)c2)CCOC(c2ccc(F)c(C(N)=O)c2)C1 (single isomer, unassigned) [SC-139, 2-Fluoro-5-[4-methyl-4-[[3-(trifluoromethyl)phenyl]sulfonyl]-tetrahydro-pyran-2-yl]-benzamide]",B (%-Inhibition >75% up to ≦95%)
5,"CC1(S(=O)(=O)c2cccc(C(F)(F)F)c2)CCOC(COc2ccc(S(C)(=O)=O)cc2F)C1 (single isomer, unassigned) [SC-149, 2-[(2-Fluoro-4-methylsulfonyl-phenoxy)-methyl]-4-methyl-4-[[3-(trifluoromethyl)phenyl]sulfonyl]-tetrahydro-pyran]",A (%-Inhibition >95%)

# Same assay, conditions: HEK293, 3 μM test compound, 30 mM KCl assay buffer (inactivated channel state), HEK293 cells; read-out: Activity Category: %-Inhib (CaV2.2) @3 μM @30 mM KCl
row,Structure (SMILES),inhibition at 3 µM
1,"CC1(C)CC(C)(S(=O)(=O)c2cccc(C(F)(F)F)c2)CC(c2ccc(Cl)cc2)O1 (racemic) [SC-302, 6-(4-Chlorophenyl)-2,2,4-trimethyl-4-[[3-(trifluoromethyl)phenyl]sulfonyl]-tetrahydro-pyran]",75 to 95%
2,"CC1(S(=O)(=O)c2cc(F)cc(C(F)(F)F)c2)CCOC(c2ccc(Cl)cc2)C1 (racemic) [SC-305, 2-(4-Chlorophenyl)-4-[[3-fluoro-5-(trifluoromethyl)-phenyl]sulfonyl]-4-methyl-tetrahydro-pyran]",75 to 95%
3,"CC1(S(=O)(=O)c2cccc(OC(F)(F)F)c2)CCOC(c2ccc(Cl)cc2)C1 (racemic) [SC-315, 2-(4-Chlorophenyl)-4-methyl-4-[[3-(trifluoromethyloxy)-phenyl]sulfonyl]-tetrahydro-pyran]",> 95%
4,"CC1(S(=O)(=O)c2cccc(OC(F)(F)F)c2)CCOC(c2ccc(S(C)(=O)=O)cc2F)C1 (racemic) [SC-504, 2-(2-Fluoro-4-methylsulfonyl-phenyl)-4-methyl-4-[[3-(trifluoromethyloxy)-phenyl]sulfonyl]-tetrahydro-pyran]",> 95%
5,"CC(C)c1cccc(S(=O)(=O)C2(C)CCOC(c3ccc(S(C)(=O)=O)cc3F)C2)c1 (racemic) [SC-505, 2-(2-Fluoro-4-methylsulfonyl-phenyl)-4-[(3-isopropyl-phenyl)sulfonyl]-4-methyl-tetrahydro-pyran]",> 95%
6,"CC1(S(=O)(=O)c2cccc(C(F)F)c2)CCOC(c2ccc(S(C)(=O)=O)cc2F)C1 (racemic) [SC-508, 4-[[3-(Difluoro-methyl)-phenyl]sulfonyl]-2-(2-fluoro-4-methylsulfonyl-phenyl)-4-methyl-tetrahydro-pyran]",75 to 95%
7,"CC(C)Oc1cccc(S(=O)(=O)C2(C)CCOC(c3ccc(S(C)(=O)=O)cc3F)C2)c1 (racemic) [SC-511, 2-(2-Fluoro-4-methylsulfonyl-phenyl)-4-[(3-isopropoxy-phenyl)sulfonyl]-4-methyl-tetrahydro-pyran]",75 to 95%
8,"CC1(S(=O)(=O)c2cccc(C3CC3)c2)CCOC(c2ccc(S(C)(=O)=O)cc2F)C1 (racemic) [SC-514, 4-[(3-Cyclopropyl-phenyl)sulfonyl]-2-(2-fluoro-4-methylsulfonyl-phenyl)-4-methyl-tetrahydro-pyran]",> 95%
9,"CC1(S(=O)(=O)c2cc(F)cc(C(F)(F)F)c2)CCOC(c2ccc(S(C)(=O)=O)cc2F)C1 (racemic) [SC-515, 2-(2-Fluoro-4-methylsulfonyl-phenyl)-4-[[3-fluoro-5-(trifluoromethyl)-phenyl]sulfonyl]-4-methyl-tetrahydro-pyran]",> 95%
10,"CC1(S(=O)(=O)c2cccc(OC(F)F)c2)CCOC(c2ccc(S(C)(=O)=O)cc2F)C1 (racemic) [SC-520, 4-[[3-(Difluoro-methoxy)-phenyl]sulfonyl]-2-(2-fluoro-4-methylsulfonyl-phenyl)-4-methyl-tetrahydro-pyran]",75 to 95%
11,"CC1(S(=O)(=O)c2cccc(C(F)(F)F)c2)CCC(c2ccc(Cl)cc2)OC1 (single isomer, unassigned) [SC-116, 2-(4-Chlorophenyl)-5-methyl-5-[[3-(trifluoromethyl)phenyl]sulfonyl]-tetrahydro-pyran]",40 to 75%
12,"CC1(c2ccc(Cl)cc2)CC(S(=O)(=O)c2cccc(C(F)(F)F)c2)CCO1 (single isomer, unassigned) [SC-117, 2-(4-Chlorophenyl)-2-methyl-4-[[3-(trifluoromethyl)phenyl]sulfonyl]-tetrahydro-pyran]",> 95%
13,"CC1(S(=O)(=O)c2cccc(C(F)(F)F)c2)CCOC(COc2ccc(Cl)cc2)C1 (single isomer, unassigned) [SC-127, 2-((4-chlorophenoxy)methyl)-4-methyl-4-((3-(trifluoromethyl)phenyl)sulfonyl)tetrahydro-2H-pyran]",> 95%
14,"CC1(S(=O)(=O)c2cccc(C(F)(F)F)c2)CCOC(Cc2ccc(Cl)cc2)C1 (single isomer, unassigned) [SC-130, 2-[(4-Chlorophenyl)-methyl]-4-methyl-4-[[3-(trifluoromethyl)phenyl]sulfonyl]-tetrahydro-pyran]",75 to 95%
15,"CC1(S(=O)(=O)c2cccc(C(F)(F)F)c2)CCOC(c2ccc(S(C)(=O)=O)c(S(C)(=O)=O)c2)C1 (single isomer, unassigned) [SC-132, 2-[3,4-Bis(methylsulfonyl)-phenyl]-4-methyl-4-[[3-(trifluoromethyl)phenyl]sulfonyl]-tetrahydro-pyran]",75 to 95%
16,"CC1(S(=O)(=O)c2cccc(C(F)(F)F)c2)CCOC(c2ccc(-n3cncn3)cc2)C1 (single isomer, unassigned) [SC-134, 1-[4-[4-Methyl-4-[[3-(trifluoromethyl)phenyl]sulfonyl]-tetrahydro-pyran-2-yl]-phenyl]-1H-[1,2,4]triazole]",75 to 95%
17,"CC1(S(=O)(=O)c2cccc(C(F)(F)F)c2)CCOC(c2ccc(F)c(C#N)c2)C1 (single isomer, unassigned) [SC-136, 2-Fluoro-5-[4-methyl-4-[[3-(trifluoromethyl)phenyl]sulfonyl]-tetrahydro-pyran-2-yl]-benzonitrile]",> 95%
18,"CC1(S(=O)(=O)c2cc(F)cc(C(F)(F)F)c2)CCOC(c2ccc(S(C)(=O)=O)cc2)C1 (single isomer, unassigned) [SC-142, 4-[[3-Fluoro-5-(trifluoromethyl)-phenyl]sulfonyl]-4-methyl-2-(4-methylsulfonyl-phenyl)-tetrahydro-pyran]",75 to 95%
19,"CC1(S(=O)(=O)c2cccc(C(F)(F)F)c2)CCOC(COc2ccc(S(C)(=O)=O)cc2F)C1 (single isomer, unassigned) [SC-148, 2-[(2-Fluoro-4-methylsulfonyl-phenoxy)-methyl]-4-methyl-4-[[3-(trifluoromethyl)phenyl]sulfonyl]-tetrahydro-pyran]",75 to 95%
20,"CC1(S(=O)(=O)c2cccc(C(F)(F)F)c2)CCOC(COc2ccc(S(C)(=O)=O)c(F)c2)C1 (single isomer, unassigned) [SC-150, 2-[(3-Fluoro-4-methylsulfonyl-phenoxy)-methyl]-4-methyl-4-[[3-(trifluoromethyl)phenyl]sulfonyl]-tetrahydro-pyran]",75 to 95%
